Results published in patent publication US8198273B2, “Compounds and methods for kinase modulation, and indications therefor” (Plexxikon Inc., priority 2009, dated 2012).

Experiments:
[1] = system: COLO205 colon adenocarcinoma cells (B-Raf V600E); assay: COLO205 cell growth inhibition (ATPlite); format: cell-based; settings: Homo sapiens, COLO 205, 72 h; COLO205, 3 days incubation
Method: (§1) Compounds are assessed in a variety of cell based assays. For example human cell lines with B-Raf V600E mutation (A375 melanoma, SKMEL3 melanoma, and COL0205 colon adenocarcinoma), as well as tumorigenic cell lines with wild-type B-RAF (SW620 colon adenocarcinoma) or with Ras mutations (SKMEL2 melanoma and IPC298 melanoma). Similar assays may be used to assess additional tumorigenic cell lines with Ras mutations, including, but not limited to, M202, M207, M243, M244, M296, S117, HCT116, HCT15, DLD1, MiaPaCa, A549, NCI-H23, NCI-H460, HOP62, MDA-MB231, Hs-578T, HL60, MOLT-4, and CCRF-CEM.
(§2) On day 1, cells are counted, then centrifuged in a conical tube for 5 minutes at 1000 rpm. The supernatant is removed and cells are re-suspended as follows: • SW620 (ATCC catalog #CCL-27): resuspend in Leibovitz's L-15 medium, 2 mM L-glutamine, 10% fetal bovine serum to 6×10^4 cells/mL. • A375 (ATCC catalog #CRL-1619): resuspend in Dulbecco's modified Eagle's medium, 4 mM L-glutamine, 4.5 g/L D-glucose, 10% fetal bovine serum to 6×10^4 cells/mL. • COL0205 (ATCC catalog #CCL-222): resuspend in RPMI 1640, 2 mM L-glutamine, 1.5 g/L sodium bicarbonate, 4.5 g/L D-glucose, 10 mM HEPES, 1.0 mM sodium pyruvate, 10% fetal bovine serum to 6×10^4 cells/mL. • SKMEL2 (ATCC catalog #HTB-68): resuspend in Minimum Eagle essential medium, 2 mM L-glutamine, 1.5 g/L sodium bicarbonate, 0.1 mM non-essential amino acids, 1.0 mM sodium pyruvate, 10% fetal bovine serum to 6×10^4 cells/mL. • SKMEL3 (ATCC catalog #HTB-69): resuspend in McCoy's 5A medium, 1.5 mM L-glutamine, 15% fetal bovine serum to 6×10^4 cells/mL. • IPC298 (DSMZ catalog #ACC 251): resuspend in RPMI 1640, 2 mM L-glutamine, 10% fetal bovine serum to 6×10^4 cells/mL.
(§3) The cells are plated, 50 μL in each well of a 96-well dish (Corning 3610) and incubated at 37° C. in 5% CO2 overnight, cells plated to a final concentration of cells as follows:
(§4) On day 2, compound at a maximum concentration of 5 mM is serially diluted 1:3 for a total of 8 point titration with DMSO as a control. A 1 μL aliquot of each dilution point and control is added to 249 μL growth media and 50 μL is added to a well containing cells, providing 10 μM compound at the maximum concentration point. The cells are incubated for 3 days at 37° C. in 5% CO2.
(§5) On day 5, ATPlite 1 step Luminescence Assay System (Perkin Elmer #6016739) is brought to room temperature along with the cell cultures. ATPlite is added 25 μL to each well, shake for 2 minutes, and the cells are incubated at room temperature for 10 minutes, then luminescence is read on Safire reader. The measured luminescence correlates directly with cell number, such that the reading as a function of compound concentration is used to determine the IC50 value.
(§6) It is understood that the results of these assays may vary as assay conditions are varied. Inhibition levels determined under the conditions described herein represent a relative activity for the compounds tested under the specific conditions employed. The cell based assays are likely to show variability due to the complexity of the system and the sensitivity thereof to any changes in the assay conditions. […] Results for compounds that are tested and show substantially no inhibition below the highest tested concentration are represented as “-” in the tables below. In some instances, the compounds were not tested in all of the assays, or assay results were not valid, as indicated by NA in the tables below.

B-Raf = B-Raf (Homo sapiens, UniProt P15056); assay: B-Raf biochemical kinase inhibition (AlphaScreen, biotin-MEK1 substrate); settings: 100 μM ATP
Chain of B-Raf (P15056 whole entry): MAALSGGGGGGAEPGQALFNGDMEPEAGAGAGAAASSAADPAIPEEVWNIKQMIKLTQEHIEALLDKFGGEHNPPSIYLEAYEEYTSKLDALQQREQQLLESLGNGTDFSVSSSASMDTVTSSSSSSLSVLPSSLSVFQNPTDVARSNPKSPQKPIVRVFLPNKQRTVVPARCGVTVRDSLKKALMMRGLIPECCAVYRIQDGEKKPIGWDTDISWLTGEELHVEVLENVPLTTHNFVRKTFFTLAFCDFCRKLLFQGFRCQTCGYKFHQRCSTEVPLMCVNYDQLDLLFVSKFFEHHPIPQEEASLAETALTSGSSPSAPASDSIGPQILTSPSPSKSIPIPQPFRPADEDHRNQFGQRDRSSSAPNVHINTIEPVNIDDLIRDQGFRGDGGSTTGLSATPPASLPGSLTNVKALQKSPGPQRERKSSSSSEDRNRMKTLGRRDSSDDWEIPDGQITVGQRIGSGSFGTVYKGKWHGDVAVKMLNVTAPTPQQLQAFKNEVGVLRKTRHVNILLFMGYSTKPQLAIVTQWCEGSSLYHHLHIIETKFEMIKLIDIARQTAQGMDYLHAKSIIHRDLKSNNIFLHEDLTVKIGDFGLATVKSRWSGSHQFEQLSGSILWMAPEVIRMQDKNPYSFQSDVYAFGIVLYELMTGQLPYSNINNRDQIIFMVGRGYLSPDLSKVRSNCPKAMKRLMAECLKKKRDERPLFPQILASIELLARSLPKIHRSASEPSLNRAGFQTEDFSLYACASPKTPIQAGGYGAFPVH
Method: (§7) Compounds to be tested are diluted in dimethyl sulfoxide to a concentration of 0.1 mM. These are serially diluted 15 μL into 30 μL of dimethyl sulfoxide seven times in 96 well plates for a total of 8 dilution points, and for each dilution point 1 μL is added to a well of an assay plate. […] The reaction is started with addition of 10 μL of 200 μM ATP (i.e. final 100 μM ATP). […] The plates are incubated for 3 hours at room temperature and read on Envision reader (Perkin Elmer). […] The signal vs. compound concentration is used to determine the IC50.

c-Raf-1 = c-Raf-1 (Homo sapiens, UniProt P04049); assay: c-Raf-1 biochemical kinase inhibition (AlphaScreen, biotin-MEK1 substrate); settings: 100 μM ATP
Chain of c-Raf-1 (P04049 whole entry): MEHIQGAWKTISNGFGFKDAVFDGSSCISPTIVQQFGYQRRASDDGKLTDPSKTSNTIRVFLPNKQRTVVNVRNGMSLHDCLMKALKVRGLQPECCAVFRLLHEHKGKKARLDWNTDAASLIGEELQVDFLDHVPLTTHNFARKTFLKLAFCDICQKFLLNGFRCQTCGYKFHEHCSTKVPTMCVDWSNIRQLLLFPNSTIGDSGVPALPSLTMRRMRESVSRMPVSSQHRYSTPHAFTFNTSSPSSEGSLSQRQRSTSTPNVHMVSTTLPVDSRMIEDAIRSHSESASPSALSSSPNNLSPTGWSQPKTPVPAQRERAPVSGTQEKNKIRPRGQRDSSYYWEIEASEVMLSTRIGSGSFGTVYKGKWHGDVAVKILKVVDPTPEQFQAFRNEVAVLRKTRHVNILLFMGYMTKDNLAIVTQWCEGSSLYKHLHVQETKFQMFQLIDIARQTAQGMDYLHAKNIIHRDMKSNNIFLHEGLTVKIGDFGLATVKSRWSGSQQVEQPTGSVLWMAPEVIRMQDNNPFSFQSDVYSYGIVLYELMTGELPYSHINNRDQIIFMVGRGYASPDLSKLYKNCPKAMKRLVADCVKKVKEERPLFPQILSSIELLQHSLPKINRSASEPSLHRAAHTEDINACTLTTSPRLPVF
Method: as §7

[2] = system: A375 melanoma cells (B-Raf V600E); assay: A375 cell growth inhibition (ATPlite); format: cell-based; settings: Homo sapiens, A-375, 72 h; A375, 3 days incubation
Method: as §1, §2, §3, §4, §5, §6

[3] = system: SKMEL2 melanoma cells (Ras mutation); assay: SKMEL2 cell growth inhibition (ATPlite); format: cell-based; settings: Homo sapiens, SK-MEL-2, 72 h; SKMEL2, 3 days incubation
Method: as §1, §2, §3
SKMEL2: 2,000 cells per well.
as §4, §5, §6

B-Raf V600E = B-Raf V600E (Homo sapiens, UniProt P15056, V600E); assay: B-Raf V600E biochemical kinase inhibition (AlphaScreen, biotin-MEK1 substrate); settings: 100 μM ATP
Chain of B-Raf V600E (P15056 whole entry V600E): as the sequence (P15056 whole entry) above, with V600E counted along it
Method: as §7

[4] = system: SW620 colon adenocarcinoma cells (wild-type B-RAF); assay: SW620 cell growth inhibition (ATPlite); format: cell-based; settings: Homo sapiens, SW-620, 72 h; SW620, 3 days incubation
Method: as §1, §2, §3, §4, §5, §6

A-Raf = molecular target: T1, A-Raf (Homo sapiens, UniProt P10398); assay: A-Raf biochemical kinase inhibition (AlphaScreen, biotin-MEK1 substrate); settings: 100 μM ATP
T1 sequence (P10398 1-606): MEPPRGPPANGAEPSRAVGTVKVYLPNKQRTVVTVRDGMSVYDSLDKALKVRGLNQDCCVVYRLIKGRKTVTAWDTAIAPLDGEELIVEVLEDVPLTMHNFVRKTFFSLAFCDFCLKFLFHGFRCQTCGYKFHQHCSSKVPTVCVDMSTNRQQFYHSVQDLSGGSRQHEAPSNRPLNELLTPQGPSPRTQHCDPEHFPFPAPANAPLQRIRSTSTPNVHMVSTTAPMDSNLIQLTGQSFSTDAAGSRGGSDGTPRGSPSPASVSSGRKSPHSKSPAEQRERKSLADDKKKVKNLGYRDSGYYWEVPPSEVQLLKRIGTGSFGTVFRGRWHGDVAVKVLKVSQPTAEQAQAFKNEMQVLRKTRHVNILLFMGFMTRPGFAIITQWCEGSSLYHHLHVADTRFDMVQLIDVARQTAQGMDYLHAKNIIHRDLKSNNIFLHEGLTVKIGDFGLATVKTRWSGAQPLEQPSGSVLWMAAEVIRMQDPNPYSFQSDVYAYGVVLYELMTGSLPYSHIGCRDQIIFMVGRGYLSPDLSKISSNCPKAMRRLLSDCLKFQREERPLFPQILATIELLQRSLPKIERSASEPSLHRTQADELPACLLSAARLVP
Method: as §7

Structure (SMILES)	IC50 [1] [nM]	IC50 (B-Raf) [nM]	IC50 (c-Raf-1) [nM]	IC50 [2] [nM]	IC50 [3] [nM]	IC50 (B-Raf V600E) [nM]	IC50 [4] [nM]	IC50 (A-Raf) [nM]
CCCS(=O)(=O)Nc1ccc(F)c(C(=O)c2c[nH]c3ncc(-c4ccc(O)nc4)cc23)c1F [P-2234, Propane-1-sulfonic acid {2,4-difluoro-3-[5-(6-hydroxy-pyridin-3-yl)-1H-pyrrolo[2,3-b]pyridine-3-carbonyl]-phenyl}-amide]	< 5000	< 10	< 10	< 5000	> 10000	< 10	> 10000	< 10
CCCS(=O)(=O)Nc1ccc(F)c(C(=O)c2c[nH]c3ncc(-c4ccc(C(N)=O)nc4)cc23)c1F [P-2220, 5-{3-[2,6-Difluoro-3-(propane-1-sulfonylamino)-benzoyl]-1H-pyrrolo[2,3-b]pyridin-5-yl}-pyridine-2-carboxylic acid amide]	< 1000	< 100	< 100	< 1000		< 100	> 10000	< 10
CC(C)CS(=O)(=O)Nc1ccc(F)c(C(=O)c2c[nH]c3ncc(-c4cnn(C)c4)cc23)c1F [P-2299, 2-Methyl-propane-1-sulfonic acid {2,4-difluoro-3-[5-(1-methyl-1H-pyrazol-4-yl)-1H-pyrrolo[2,3-b]pyridine-3-carbonyl]-phenyl}-amide]	< 1000	< 10		< 1000	> 10000	< 10	> 10000	
CCCS(=O)(=O)Nc1ccc(F)c(C(=O)c2c[nH]c3ncc(-c4ccc(NC(C)=O)cc4)cc23)c1F [P-2161, N-(4-{3-[2,6-Difluoro-3-(propane-1-sulfonylamino)-benzoyl]-1H-pyrrolo[2,3-b]pyridin-5-yl}-phenyl)-acetamide]	< 1000			< 1000	< 10000	< 10	> 10000	
CCCS(=O)(=O)Nc1ccc(F)c(C(=O)c2c[nH]c3ncc(-c4ccc(C)nc4F)cc23)c1F [P-2172, Propane-1-sulfonic acid {2,4-difluoro-3-[5-(2-fluoro-6-methyl-pyridin-3-yl)-1H-pyrrolo[2,3-b]pyridine-3-carbonyl]-phenyl}-amide]	< 1000	< 100		< 1000	< 5000	< 100	< 10000	
